Source: patent US7407939B2, “Protein kinase inhibitors comprising ATP mimetics conjugated to peptides or peptidomimetics” (CureGenics Ltd., priority 2001, dated 2008)
*1 amine or outer side, *2 acyl side, *3 side chain or, on linkers, in order; H or OH if unused. Where a SMILES comes first, the peptide text is derived from it. Side-chain parts run from the residue outwards. [ ]: non-standard residue; d: D form. The star is where a group is joined. Isoquinoline5sulfonyl = O=S(=O)(c1cccc2cnccc12)*; Ethylenediamine = C(CN[*:2])N[*:1]; hLeu = CC(C)CC[C@H](N)C(=O)O; Nle = CCCC[C@H](N)C(=O)O; Dab = NCC[C@H](N)C(=O)O; Nva = CCC[C@H](N)C(=O)O; βAla = NCCC(=O)O

What was measured:
PKB = molecular target: T1, PKB (Homo sapiens, UniProt P31749); test: PKB in vitro kinase activity assay (soluble His-HA-PKB / SPA bead screening); assay type: biochemical; settings: chimeric PTR compounds (peptide conjugated to isoquinoline small molecule); read-out: PKB IC50
T1 construct: His; HA; made in house
T1 sequence (P31749 whole entry, species assumed): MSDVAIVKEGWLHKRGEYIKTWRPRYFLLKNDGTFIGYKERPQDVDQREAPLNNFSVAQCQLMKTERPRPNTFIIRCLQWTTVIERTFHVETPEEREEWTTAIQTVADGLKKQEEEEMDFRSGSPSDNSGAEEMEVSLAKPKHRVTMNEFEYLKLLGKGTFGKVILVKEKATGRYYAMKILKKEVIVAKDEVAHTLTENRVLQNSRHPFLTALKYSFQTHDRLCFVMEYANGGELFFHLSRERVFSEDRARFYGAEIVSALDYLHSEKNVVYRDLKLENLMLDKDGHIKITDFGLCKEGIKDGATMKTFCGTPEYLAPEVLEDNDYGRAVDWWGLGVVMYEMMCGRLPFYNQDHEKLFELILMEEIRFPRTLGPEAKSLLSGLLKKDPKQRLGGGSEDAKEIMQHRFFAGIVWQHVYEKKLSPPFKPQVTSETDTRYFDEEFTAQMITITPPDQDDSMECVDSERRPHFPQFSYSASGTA

PKA = molecular target: T2, PKA (Bos taurus, UniProt P00517); test: In vitro PKA kinase activity assay (kemptide / SPA beads); assay type: biochemical; settings: chimeric PTR compounds (peptide conjugated to isoquinoline small molecule); read-out: PKA IC50;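 also: Cell-free assay of purified PKA catalytic subunit phosphorylating the 7-mer kemptide substrate, run in MOPS buffer with magnesium acetate and BSA, with blank wells lacking enzyme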
T2 construct: purchased Promega
Procedure: PKA enzyme was purchased from Promega. PKA activity is assayed on a 7-mer peptide, LRRASLG, known as kemptide. The assay is carried out in 96-well plates, in a final volume of 50 μl per well. The reaction mixture includes various concentrations of the inhibitor, 50 mM MOPS, 10 mM MgAc, 0.2 mg/ml BSA, 10 μM ATP, 20 μM Kemptide and 1 μCi γ^32P ATP. Reaction is started with addition of 15 μl of the catalytic subunit of PKA diluted in 0.1 mg/ml BSA, 0.4 U/well. Two blank wells without enzyme are included in every assay. The plates are agitated continuously at 30° C. for 10′ or at 27° C. for 1 hour. Reaction is stopped by addition of 12 μl 200 mM EDTA. 20 μl aliquots of the assay mixture are spotted onto 2 cm^2 phosphocellulose strips (e.g. Whatman P81) and immersed in 75 mM phosphoric acid (10 ml per sample). The phosphocellulose strips are washed 6 times. Washes are done in continuous swirling for 5 minutes, last wash is in acetone. After air drying the strips, radiation is measured by scintillation spectrometry.
Screening compounds for PKA inhibition was performed in 96-well plate using SPA beads, as described below for PKB with the following modifications; The enzyme substrate was 5 μM biotinylated-kemptide peptide (biotin-[sequence]). The kinase buffer was 50 mM MOPS pH 7, 0.2 mg/ml BSA, 10 mM Magnesium acetate. PKA (0.4 unit) diluted in 0.1 mg/ml BSA was added to each well.

PC-3 cells = test: ssDNA apoptosis ELISA (induction of apoptosis in prostate cancer cells); assay type: cell-based; settings: 50 μM, optical density of treated divided by untreated cells
Procedure: Cells were assayed for Apoptosis using the ssDNA Apoptosis ELISA kit (Chemicon International Inc.). Cells were seeded in 96-well plates (5000 cells/well) and treated with different concentrations of the inhibitors. At different time point, plates were centrifuges at 200 g for 5 min, medium was removed and the cells were fixed with 80% methanol in PBS for 30 min at room temperature. Plates were dried by floating in a waterbath at 37° C. for 20 minutes. 50 μl of Formamide was added to each well and incubate at room temperature for 10 min. Plates were heated to 75° C. in a circulating waterbath for 10 min, cooled in refrigerator for 5 min, and then formamide was removed. Plates were blocked by 3% non-fat dry milk in distilled water (w/v) for 1 hr at 37° C. Blocking was removed and 100 μl of antibody mixture (primary monoclonal antibody to ssDNA and HRP-labelled anti-mouse IgM) was added to each well. Plates were monitored for colour development by ABTS using microplate reader at 405 nm.
DNA in apoptotic cells is sensitive to denaturation by formamide in contrast to necrotic cells. This sensitivity is due to changes in apoptotic cells chromatin. The specific denaturation was detected with monoclonal antibody to single stranded DNA. Using ssDNA Apoptosis ELISA kit (Chemicon International, Inc.) chimeric compounds were analyzed for their potential to induce apoptosis in PC-3 cells compared to TRAIL (TNF-related apoptosis-inducing ligand), a known apoptotic agent (R&D Systems, Inc.). Results are presented in values of apoptotic index which is calculated by dividing the optical density of treated and untreated cells.

| IC50 (PKB) [nM] | IC50 (PKA) [nM] | Compound | Apoptotic index (48 hours) (PC-3 cells) |
| --- | --- | --- | --- |
| 570 | 500 | CCCC[C@H](NC(=O)[C@H](CCCNC(=N)N)NC(=O)[C@@H]1CCCN1C(=O)[C@@H](N)CCCNC(=N)N)C(=O)N[C@@H](CCC(=O)NCCC(=O)NCCNS(=O)(=O)c1cccc2cnccc12)C(=O)N[C@@H](CO)C(=O)N[C@@H](Cc1ccccc1)C(N)=O [compound 6086] | 2.5 |
| 930 | 200 | CCCC[C@H](NC(=O)[C@H](CO)NC(=O)[C@H](CCC(=O)NCCC(=O)NCCNS(=O)(=O)c1cccc2cnccc12)NC(=O)[C@H](CCCC)NC(=O)[C@H](CCCNC(=N)N)NC(=O)[C@@H]1CCCN1C(=O)[C@@H](N)CCCNC(=N)N)C(N)=O [compound 6096] (H-RPR[Nle]E([βAla-Ethylenediamine-Isoquinoline5sulfonyl])S[Nle]-NH2; N-terminus assumed) | 3.2 |
| 413 | 195 | CCCC[C@H](NC(=O)[C@H](CCCNC(=N)N)NC(=O)[C@@H]1CCCN1C(=O)[C@@H](N)CCCNC(=N)N)C(=O)N[C@@H](CCC(=O)NCCC(=O)NCCNS(=O)(=O)c1cccc2cnccc12)C(=O)N[C@@H](CCN)C(=O)N[C@@H](Cc1ccccc1)C(N)=O [compound 6140] (H-RPR[Nle]E([βAla-Ethylenediamine-Isoquinoline5sulfonyl])[Dab]F-NH2; N-terminus assumed) | 4.0 |
| 5000 | 5000 | CCC[C@H](NC(=O)[C@H](CCCNC(=N)N)NC(=O)[C@@H]1CCCN1C(=O)[C@@H](N)CCCNC(=N)N)C(=O)N[C@@H](CCC(=O)NCCC(=O)NCCNS(=O)(=O)c1cccc2cnccc12)C(=O)N[C@@H](C)C(=O)N[C@@H](CCC(C)C)C(N)=O [compound 6152] (H-RPR[Nva]E([βAla-Ethylenediamine-Isoquinoline5sulfonyl])A[hLeu]-NH2; N-terminus assumed) | 1.5 |
